Patent US20240024273A1, “TOPICAL ADMINISTRATION OF 2-(DIETHYLAMINO)ETHYL 2-(4-ISOBUTYLPHENYL)PROPRIONATE FOR TREATMENT OF DISEASES” (TECHFIELDS PHARMA CO., LTD., priority 2020, published 2024)

Key:
[1] = test system: osteoarthritis of the knee; experiment: Second Phase 2 study: Subject's pain Assessment Scores (SPA); type: in vivo, human; conditions: Week 12; for Subject’s pain Assessment Scores, Different from oral ibuprofen (LS Mean) / Subject’s pain Assessment Scores, Different from placebo (LS Mean) / Subject’s pain Assessment Scores, Week 12 (LS Mean) / Subject’s pain Assessment Scores, % of improvement from Oral Ibuprofen / Subject’s pain Assessment Scores, % of improvement from baseline / Subject’s pain Assessment Scores, % of improvement from placebo / Subject’s pain Assessment Scores, Changes from Baseline (LS Mean): first 130 subjects; for Subject's pain Assessment Scores, % of improvement from Oral Ibuprofen / Subject's pain Assessment Scores, % of improvement from Placebo / Subject's pain Assessment Scores, % of improvement from baseline / Subject's pain Assessment Scores, Changes from Baseline (LS Mean) / Subject's pain Assessment Scores, Week 12 (LS Mean) / Subject's pain Assessment Scores, Different from oral ibuprofen (LS Mean) / Subject's pain Assessment Scores, Different from placebo (LS Mean): all subjects
Experimental: Subjects will record the following information in a Daily Diary starting at Screening: the amount of knee pain in the target knee while walking during the preceding 24 hours (using a 100 mm visual analog scale [VAS]), the times and number of sprays for each administration of study medication, the times when the subject washes his/her knees and/or takes a shower, the number of tablets of rescue medication taken that day and the times taken, the reason for taking the rescue medication (e.g., knee pain, headache, low back pain), any other concomitant medications taken that day, and any AEs occurring that day.

[2] = test system: osteoarthritis of the knee; experiment: Second Phase 2 study: Subject's Global Assessment of Disease Status (SGADS); type: in vivo, human
Text: 4.9.2. Secondary Efficacy Endpoints: • 1. Change from Baseline in the WOMAC (VAS) pain subscale score for the target knee at 2, 8, and 12 weeks of treatment; • 2. Change from Baseline in the WOMAC (VAS) stiffness subscale scores for the target knee and WOMAC (VAS) functional ability subscale scores at 2, 4, 8, and 12 weeks of treatment; • 3. Change from Baseline in the overall WOMAC (VAS) score at 2, 4, 8, and 12 weeks of treatment; • 4. Subject's global assessment of disease status of the target knee at 2, 4, 8, and 12 weeks of treatment; • 5. Subject's global assessment of response to therapy of the target knee at 2, 4, 8, and 12 weeks of treatment; • 6. Amount of rescue medication (acetaminophen) consumed per day for target knee pain.

[3] = 17.5 mg/knee BID, Week 12, first 130 subjects
[4] = Week 12, 4.375 mg/knee BID (n = 23), first 130 subjects
[5] = Week 12, 8.75 mg/knee BID (n = 24), first 130 subjects
[6] = Week 12, 17.5 mg/knee BID (n = 19), first 130 subjects
[7] = all subjects, 4.375 mg/knee BID, n = 49, Week 12
[8] = all subjects, 8.75 mg/knee BID, n = 54, Week 12
[9] = all subjects, 17.5 mg/knee BID, n = 52, Week 12

CCN(CC)CCOC(=O)C(C)c1ccc(CC(C)C)cc1 (centres unmarked) [2-(diethylamino)ethyl 2-(4-isobutylphenyl)propionate]
Subject’s pain Assessment Scores, Different from oral ibuprofen (LS Mean) ([1]; 4.375 mg/knee BID (n = 23)): 2.8 mm
Subject’s pain Assessment Scores, Different from placebo (LS Mean) ([1]; 4.375 mg/knee BID (n = 23)): −4.0 mm
Subject’s pain Assessment Scores, Week 12 (LS Mean) ([1]; 4.375 mg/knee BID (n = 23)): 36.7 mm
Subject’s pain Assessment Scores, % of improvement from Oral Ibuprofen ([1]; 8.75 mg/knee BID (n = 24)): −10.4%
Subject’s pain Assessment Scores, % of improvement from baseline ([1]; 8.75 mg/knee BID (n = 24)): −47.7%
Subject’s pain Assessment Scores, % of improvement from placebo ([1]; 8.75 mg/knee BID (n = 24)): −18.5%
Subject’s pain Assessment Scores, Changes from Baseline (LS Mean) ([1]; 8.75 mg/knee BID (n = 24)): −30.3 mm
Subject’s pain Assessment Scores, Different from oral ibuprofen (LS Mean) ([1]; 8.75 mg/knee BID (n = 24)): −3.8 mm
Subject’s pain Assessment Scores, Different from placebo (LS Mean) ([1]; 8.75 mg/knee BID (n = 24)): −11.4 mm
Subject’s pain Assessment Scores, Week 12 (LS Mean) ([1]; 8.75 mg/knee BID (n = 24)): 33.2 mm
Subject’s pain Assessment Scores, % of improvement from Oral Ibuprofen ([1]; 17.5 mg/knee BID (n = 19)): −22.0%
Subject’s pain Assessment Scores, % of improvement from baseline ([1]; 17.5 mg/knee BID (n = 19)): −58.2%
Subject’s pain Assessment Scores, % of improvement from placebo ([1]; 17.5 mg/knee BID (n = 19)): −29.0%
Subject’s pain Assessment Scores, Changes from Baseline (LS Mean) ([1]; 17.5 mg/knee BID (n = 19)): −39.9 mm
Subject’s pain Assessment Scores, Different from oral ibuprofen (LS Mean) ([1]; 17.5 mg/knee BID (n = 19)): −14.1 mm
Subject’s pain Assessment Scores, Different from placebo (LS Mean) ([1]; 17.5 mg/knee BID (n = 19)): −21.0 mm
Subject’s pain Assessment Scores, Week 12 (LS Mean) ([1]; 17.5 mg/knee BID (n = 19)): 28.7 mm
Subject's pain Assessment Scores, % of improvement from Oral Ibuprofen ([1]; 4.375 mg/knee BID, n = 49): 4.9%
Subject's pain Assessment Scores, % of improvement from Placebo ([1]; 4.375 mg/knee BID, n = 49): −3.5%
Subject's pain Assessment Scores, % of improvement from baseline ([1]; 4.375 mg/knee BID, n = 49): −40.5%
Subject's pain Assessment Scores, Changes from Baseline (LS Mean) ([1]; 4.375 mg/knee BID, n = 49): −25.6 mm
Subject's pain Assessment Scores, Week 12 (LS Mean) ([1]; 4.375 mg/knee BID, n = 49): 37.5 mm
Subject's pain Assessment Scores, % of improvement from Oral Ibuprofen ([1]; 8.75 mg/knee BID, n = 54): −3.0%
Subject's pain Assessment Scores, % of improvement from Placebo ([1]; 8.75 mg/knee BID, n = 54): −11.4%
Subject's pain Assessment Scores, % of improvement from baseline ([1]; 8.75 mg/knee BID, n = 54): −48.4%
Subject's pain Assessment Scores, Changes from Baseline (LS Mean) ([1]; 8.75 mg/knee BID, n = 54): −31.4 mm
Subject's pain Assessment Scores, Different from oral ibuprofen (LS Mean) ([1]; 8.75 mg/knee BID, n = 54): −0.8 mm
Subject's pain Assessment Scores, Different from placebo (LS Mean) ([1]; 8.75 mg/knee BID, n = 54): −7.2 mm
Subject's pain Assessment Scores, Week 12 (LS Mean) ([1]; 8.75 mg/knee BID, n = 54): 33.5 mm
Subject's pain Assessment Scores, % of improvement from Oral Ibuprofen ([1]; 17.5 mg/knee BID, n = 52): −8.2%
Subject's pain Assessment Scores, % of improvement from Placebo ([1]; 17.5 mg/knee BID, n = 52): −16.6%
Subject's pain Assessment Scores, % of improvement from baseline ([1]; 17.5 mg/knee BID, n = 52): −53.6%
Subject's pain Assessment Scores, Changes from Baseline (LS Mean) ([1]; 17.5 mg/knee BID, n = 52): −34.6 mm
Subject's pain Assessment Scores, Different from oral ibuprofen (LS Mean) ([1]; 17.5 mg/knee BID, n = 52): −4.1 mm
Subject's pain Assessment Scores, Different from placebo (LS Mean) ([1]; 17.5 mg/knee BID, n = 52): −10.5 mm
Subject's pain Assessment Scores, Week 12 (LS Mean) ([1]; 17.5 mg/knee BID, n = 52): 30.0 mm
SGADS, difference from oral ibuprofen [2, 3]: −14.2 mm
SGADS, difference from placebo [2, 3]: −18.6 mm
Subject’s Global Assessment of Disease Status Scores, Baseline (LS Mean) ([2]; 4.375 mg/knee BID (n = 23), first 130 subjects): 64.8 mm
Subject’s Global Assessment of Disease Status Scores, Baseline (LS Mean) ([2]; 8.75 mg/knee BID (n = 24), first 130 subjects): 67.2 mm
Subject’s Global Assessment of Disease Status Scores, Baseline (LS Mean) ([2]; 17.5 mg/knee BID (n = 19), first 130 subjects): 69.3 mm
Subject’s Global Assessment of Disease Status Scores, % of improvement from Oral Ibuprofen [2, 4]: −12.2%
Subject’s Global Assessment of Disease Status Scores, % of improvement from baseline [2, 4]: −50.6%
Subject’s Global Assessment of Disease Status Scores, % of improvement from placebo [2, 4]: −14.2%
Subject’s Global Assessment of Disease Status Scores, Changes from Baseline (LS Mean) [2, 4]: −32.8 mm
Subject’s Global Assessment of Disease Status Scores, Different from oral ibuprofen (LS Mean) [2, 4]: −3.9 mm
Subject’s Global Assessment of Disease Status Scores, Different from placebo (LS Mean) [2, 4]: −8.3 mm
Subject’s Global Assessment of Disease Status Scores, Week 12 (LS Mean) [2, 4]: 32.0 mm
Subject’s Global Assessment of Disease Status Scores, % of improvement from Oral Ibuprofen [2, 5]: −11.8%
Subject’s Global Assessment of Disease Status Scores, % of improvement from baseline [2, 5]: −50.7%
Subject’s Global Assessment of Disease Status Scores, % of improvement from placebo [2, 5]: −14.3%
Subject’s Global Assessment of Disease Status Scores, Changes from Baseline (LS Mean) [2, 5]: −34.1 mm
Subject’s Global Assessment of Disease Status Scores, Different from oral ibuprofen (LS Mean) [2, 5]: −5.2 mm
Subject’s Global Assessment of Disease Status Scores, Different from placebo (LS Mean) [2, 5]: −9.6 mm
Subject’s Global Assessment of Disease Status Scores, Week 12 (LS Mean) [2, 5]: 33.1 mm
Subject’s Global Assessment of Disease Status Scores, % of improvement from Oral Ibuprofen [2, 6]: −23.8%
Subject’s Global Assessment of Disease Status Scores, % of improvement from baseline [2, 6]: −62.2%
Subject’s Global Assessment of Disease Status Scores, % of improvement from placebo [2, 6]: −25.8%
Subject’s Global Assessment of Disease Status Scores, Changes from Baseline (LS Mean) [2, 6]: −43.1 mm
Subject’s Global Assessment of Disease Status Scores, Different from oral ibuprofen (LS Mean) [2, 6]: −14.2 mm
Subject’s Global Assessment of Disease Status Scores, Different from placebo (LS Mean) [2, 6]: −18.6 mm
Subject’s Global Assessment of Disease Status Scores, Week 12 (LS Mean) [2, 6]: 26.2 mm
Subject's Global Assessment of Disease Status Scores, % of improvement from Oral Ibuprofen [2, 7]: −5.3%
Subject's Global Assessment of Disease Status Scores, % of improvement from Placebo [2, 7]: −6.0%
Subject's Global Assessment of Disease Status Scores, % of improvement from baseline [2, 7]: −51.9%
Subject's Global Assessment of Disease Status Scores, Changes from Baseline (LS Mean) [2, 7]: −34.7 mm
Subject's Global Assessment of Disease Status Scores, Week 12 (LS Mean) [2, 7]: 32.1 mm
Subject's Global Assessment of Disease Status Scores, % of improvement from Oral Ibuprofen [2, 8]: −6.4%
Subject's Global Assessment of Disease Status Scores, % of improvement from Placebo [2, 8]: −7.1%
Subject's Global Assessment of Disease Status Scores, % of improvement from baseline [2, 8]: −53.0%
Subject's Global Assessment of Disease Status Scores, Changes from Baseline (LS Mean) [2, 8]: −36.6 mm
Subject's Global Assessment of Disease Status Scores, Different from oral ibuprofen (LS Mean) [2, 8]: −3.4 mm
Subject's Global Assessment of Disease Status Scores, Different from placebo (LS Mean) [2, 8]: −6.2 mm
Subject's Global Assessment of Disease Status Scores, Week 12 (LS Mean) [2, 8]: 32.4 mm
Subject's Global Assessment of Disease Status Scores, % of improvement from Oral Ibuprofen [2, 9]: −10.6%
Subject's Global Assessment of Disease Status Scores, % of improvement from Placebo [2, 9]: −11.3%
Subject's Global Assessment of Disease Status Scores, % of improvement from baseline [2, 9]: −57.2%
Subject's Global Assessment of Disease Status Scores, Changes from Baseline (LS Mean) [2, 9]: −38.3 mm
Subject's Global Assessment of Disease Status Scores, Different from placebo (LS Mean) [2, 9]: −7.9 mm
Subject's Global Assessment of Disease Status Scores, Week 12 (LS Mean) [2, 9]: 28.7 mm
